The NIST ThermoML archive (doi:10.1021/je700294p)

How the values were obtained:
[1] = xn = mol fraction of the nth substance listed; conditions: 101 kPa, Liquid
[2] = excess molar enthalpy (molar enthalpy of mixing); xn = mol fraction of the nth substance listed; conditions: 101 kPa, Liquid

CCCC[n+]1cccc(C)c1.F[B-](F)(F)F [1-butyl-3-methylpyridinium tetrafluoroborate] + CO
Conditions	excess molar enthalpy [kcal/mol]	mass density [kg/m3]
[1], 298.15 K, x1 = 0.0493	–	873.4
[1], 298.15 K, x1 = 0.0629	–	893.1
[1], 298.15 K, x1 = 0.0986	–	934.4
[1], 298.15 K, x1 = 0.1499	–	979.6
[1], 298.15 K, x1 = 0.2007	–	1014.7
[1], 298.15 K, x1 = 0.2956	–	1061.6
[1], 298.15 K, x1 = 0.4052	–	1098.2
[1], 298.15 K, x1 = 0.5128	–	1122.8
[1], 298.15 K, x1 = 0.6009	–	1138.7
[1], 298.15 K, x1 = 0.6913	–	1151.7
[1], 298.15 K, x1 = 0.7611	–	1159.7
[1], 318.15 K, x1 = 0.0557	–	865.7
[1], 318.15 K, x1 = 0.1052	–	924.3
[1], 318.15 K, x1 = 0.1493	–	964
[1], 318.15 K, x1 = 0.2479	–	1025.1
[1], 318.15 K, x1 = 0.3016	–	1048.4
[1], 318.15 K, x1 = 0.3944	–	1079.5
[1], 318.15 K, x1 = 0.497	–	1104.7
[1], 318.15 K, x1 = 0.5868	–	1121.6
[1], 318.15 K, x1 = 0.7088	–	1139.8
[1], 318.15 K, x1 = 0.855	–	1156.2
[1], 318.15 K, x1 = 0.9465	–	1164.4
[2], 298.15 K, x1 = 0.0057	0.0261	–
[2], 298.15 K, x1 = 0.0149	0.0545	–
[2], 298.15 K, x1 = 0.0279	0.0923	–
[2], 298.15 K, x1 = 0.044	0.13	–
[2], 298.15 K, x1 = 0.0635	0.167	–
[2], 298.15 K, x1 = 0.0842	0.202	–
[2], 298.15 K, x1 = 0.1071	0.237	–
[2], 298.15 K, x1 = 0.1312	0.271	–
[2], 298.15 K, x1 = 0.1585	0.308	–
[2], 298.15 K, x1 = 0.1851	0.332	–
[2], 298.15 K, x1 = 0.2119	0.359	–
[2], 298.15 K, x1 = 0.2357	0.373	–
[2], 298.15 K, x1 = 0.2672	0.382	–
[2], 298.15 K, x1 = 0.3069	0.386	–
[2], 298.15 K, x1 = 0.3541	0.383	–
[2], 298.15 K, x1 = 0.41	0.377	–
[2], 298.15 K, x1 = 0.4816	0.361	–
[2], 298.15 K, x1 = 0.5621	0.33	–
[2], 298.15 K, x1 = 0.7167	0.257	–
[2], 298.15 K, x1 = 0.7441	0.227	–
[2], 298.15 K, x1 = 0.8438	0.158	–
[2], 298.15 K, x1 = 0.9196	0.0942	–
[2], 298.15 K, x1 = 0.9707	0.0416	–
[2], 318.15 K, x1 = 0.0159	0.0588	–
[2], 318.15 K, x1 = 0.0352	0.121	–
[2], 318.15 K, x1 = 0.0581	0.173	–
[2], 318.15 K, x1 = 0.0823	0.224	–
[2], 318.15 K, x1 = 0.1098	0.281	–
[2], 318.15 K, x1 = 0.1382	0.336	–
[2], 318.15 K, x1 = 0.1674	0.39	–
[2], 318.15 K, x1 = 0.197	0.43	–
[2], 318.15 K, x1 = 0.2147	0.462	–
[2], 318.15 K, x1 = 0.2317	0.488	–
[2], 318.15 K, x1 = 0.2641	0.512	–
[2], 318.15 K, x1 = 0.2984	0.533	–
[2], 318.15 K, x1 = 0.3343	0.544	–
[2], 318.15 K, x1 = 0.3787	0.548	–
[2], 318.15 K, x1 = 0.4391	0.538	–
[2], 318.15 K, x1 = 0.5504	0.477	–
[2], 318.15 K, x1 = 0.6911	0.349	–
[2], 318.15 K, x1 = 0.8526	0.191	–
